# System: pyramidal cell to SST-IN synapses in the prefrontal cortex
# Test: Ex vivo whole-cell electrophysiology, eEPSCs recorded from SST-INs in prefrontal cortex slices
# Format: cell-based, mouse
# Description: Shown in Figure A are representative traces of eEPSCs recorded from SST-INs in response to 5-pulse stimulation with baseline in black, illustrating the characteristic facilitating nature of pyramidal cell (PYR) to SST-IN synapses.
# Transgenic mice (both male and female) expressing tdTomato fluorescent protein in SST-INs were used in this study. They were generated by crossing female homozygous SST-Cre (Sst^tm2.1(cre)Zjh/J, Stock #: 013044, Jackson Laboratories) with male homozygous Ai9 mice (B6;Cg-Gt(Rosa)-26Sor^tm9(CAG‑tdTomato)Hze/J, Stock #: 007909, Jackson Laboratories). All animals were group housed with food and water available ad libitum, kept under a 12 h light/dark cycle with lights on from 6:00 AM to 6:00 PM, and were used for experiments during the light phase. All of the experimental procedures were approved by the Vanderbilt University Animal Care and Use committee and followed the guidelines set forth by the Guide for the Care and Use of Laboratory Animals. […] Whole cell recordings were made from visually identified, fluorescence-labeled SST-INs in layer V of PFC slices under the upright microscope. […] Excitatory postsynaptic currents (EPSCs) were recorded from layer V SST-INs at a holding potential of −80 mV and evoked by electrical stimulation (100 μs duration, applied every 15 s) through a concentric bipolar stimulating electrode placed around 100–150 μm from the recorded cell. The holding potential of −80 mV under voltage clamp is closed to the calculated reversal potential of Cl^– and thus the EPSCs recorded in the present studies had minimal GABAA-mediated component. Electrical stimulation applied near the recorded cell in the cortex presumably activates the local neurons preferentially. […] Data were analyzed using Clampfit 10 (Molecular Devices), Excel (Microsoft), and Prism (GraphPad Software), and presented as mean ± SEM. […]
structure (smiles),measurement,setting,value
O=C(Nc1ccc(Oc2ccc(Cl)cn2)c(Cl)c1)c1ccccn1 [VU0422288],effect on eEPSC amplitude,"10 μM VU0422288 alone, compared to baseline",no change in eEPSC amplitude
same,effect on eEPSCs of combination with L-AP4,"30 μM L-AP4 + 10 μM VU0422288, compared to L-AP4 alone",further depression of eEPSCs

# From article PMC12333015, “Profiling the Impact of mGlu7/Elfn1 Protein Interactions on the Pharmacology of mGlu7 Allosteric Modulators” (ACS Chemical Neuroscience, 2025)
